In patent US10054581B1, “Inhibitors of notch signaling pathway and use thereof in treatment of cancers” (Ecole Polytechnique Federale de Lausanne (EPFL), priority 2011, dated 2018):
Entries after “also recorded” stand apart in the source; their conditions may differ.

Legend:
[1] = system: active form of Notch1 (NICD); assay: NICD Western blot (VAL1744) in DL4:N1 HeLa coculture; format: cell-based, human; settings: DL4- and N1-HeLa coculture, DAPT 10 μM, 24 hours
Description: Cells were lysed in RIPA buffer (50 mM Tris.Cl, pH 7.5, 150 mM NaCl, 1% nonidet P-40, 0.5% sodium deoxycholate and 0.1% SDS) for 30 minutes at 4° C. Lysed cells were centrifuged to remove the debris at 14000 rpm at 4° C. Supernatant was transferred to a new eppendorf tube. The protein concentration was determined by Bradford assay using spectrophotometer (Ultrospec 3000 pro). 40 μg of protein were denatured in 1×SDS gel loading buffer (100 mM Tris.Cl, pH 6.8, 200 mM DTT, 4% SDS, 0.2% bromophenol, 20% glycerol) by heating at 99° C. for 5 minutes. Denatured protein samples were stored on ice until loading on to the acrylamide gel. The samples were run on 8% or 10% acrylamide gel in Tris-glycine electrophoresis buffer (25 mM Tris, 250 mM glycine, 0.1% SDS). […]
For immunoblotting, membranes were blocked with 5% milk and incubated overnight with primary antibodies at 4° C. […] Signal was detected with Super Signal West chemiluminescent substrate (Thermo Scientific, catalog number 34077).
To assess the Notch pathway activation potential of the stable cell lines, DL4 and N1 stable HeLa cells (DL4-HeLa and N1-HeLa, respectively) were cocultured in 1:1 ratio in a 6-well plate and grown to confluency. […] On the other hand, in the absence of ligand (DL4-HeLa cells) or in the presence of GSI (DAPT) NICD levels were not detected, indicating a loss of Notch signalling (data not shown). […]

RPMI8402 = assay: Annexin V apoptosis, RPMI8402; format: cell-based, human; settings: 10 μM, 7 days
Description: (§1) FIGS. 6A-6D show 6-(4-Tert-Butylphenoxy)Pyridin-3-Amine (I3) induces G0/G1 cell cycle arrest and apoptosis in human T cell acute lymphoblastic leukemia cell lines and human breast cancer cell line HCC1187. […] Percentage of Annexin V positive (apoptotic) cell population was measured using flow cytometry.
(§2) To quantitate the percentage of apoptotic cells, AnnexinV and 7AAD staining was performed. Thymic cells were suspended in 300 μl of 1× AnnexinV binding buffer (BD Biosciences, San Diego, USA) and incubated with 10 μl of AnnexinV-Cy5 antibody and 10 μl of 7AAD (BD Biosciences, San Diego, USA). Samples were incubated for 15 minutes at room temperature. FACS was performed with in one hour of antibody staining.
(§3) This 6-(4-Tert-Butylphenoxy)Pyridin-3-Amine (I3) mediated proliferative arrest could be due to induction of apoptosis or cell cycle arrest during different phases of cell cycle. […] Therefore to further elucidate the mechanisms responsible for 6-(4-Tert-Butylphenoxy)Pyridin-3-Amine (I3) mediated proliferative arrest cell cycle and apoptosis analyses were carried out. […] To investigate cell death, Annexin V staining was performed and proportion of apoptotic (AnnexinV positive) cell population was determined by flow cytometry analyses after 7 days of treatment.

TALL1 = assay: Annexin V apoptosis, TALL1; format: cell-based, human; settings: 10 μM, 7 days
Description: as §1, §2, §3

[2] = system: primary human TALL samples; assay: Primary human TALL samples treated with I3; format: cell-based
Source text: To further investigate the Notch inhibitory effect of 6-(4-Tert-Butylphenoxy)Pyridin-3-Amine (I3) in a relevant pathological condition, primary human TALL samples were profiled for the activation of Notch signalling. An accumulation of active form of Notch (NICD) was used as a biomarker for pathway activation.

[3] = system: intestinal tissue (goblet cells); assay: Intestinal toxicity in mice (Alcian blue staining for goblet cells); format: in vivo, mouse
[4] = system: Hedgehog signalling (Gli1); assay: Hedgehog signalling Gli1 luciferase assay in HeLa cells; format: cell-based; settings: HeLa cells with Gli1 and Gli1 binding site luciferase
Source text: Using a similar strategy, Hedgehog signalling was activated in HeLa cells by introducing the Gli1 transcription factor and pathway activation was monitored using a promoter sequence containing Gli1 binding sites driving the luciferase expression. […] However it still needs to be determined whether the resistance of Wnt and Hedgehog signalling towards 6-(4-Tert-Butylphenoxy)Pyridin-3-Amine (I3) is cell type specific or whether it is a general phenomenon.

[5] = primary human TALL with accumulation of NICD

Compound	NICD levels (Western blot) [1]	apoptosis (Annexin V positive cells) (RPMI8402)	apoptosis (Annexin V positive cells) (TALL1)	response to treatment ([2]; primary human TALL samples without detectable levels of NICD)	NICD protein [2, 5]	proliferation [2, 5]	intestinal architecture / goblet cell metaplasia ([3]; C57B16 mice, 25 mg/kg i.p., 7 consecutive days, analysed day 8, 25 mg/kg)	goblet cell numbers and intestinal architecture ([3]; NOD/SCID γc−/− mice with RPMI 8402 xenotransplant, treated for 27 days)	Hedgehog signalling [4]
C[C@H](NC(=O)Cc1cc(F)cc(F)c1)C(=O)N[C@H](C(=O)OC(C)(C)C)c1ccccc1 [DAPT, N—[N-(3,5-difluorophenacetyl-Lalanyl)]-(S)-phenylglycine t-butyl ester, reference compound]	can be blocked by DAPT treatment	–	–	–	–	–	–	–	–
CC(C)(C)c1ccc(Oc2ccc(N)cn2)cc1 [I3, 6-(4-Tert-Butylphenoxy)Pyridin-3-Amine]	–	induces significant apoptosis	induces significant apoptosis	did not respond	leads to a downregulation of this protein	correlates with a proliferative arrest	completely normal with intact architecture and no indication of goblet cell metaplasia; also recorded: did not perturb intestinal homeostasis and without any indication of goblet cell accumulation	did not reveal any abnormality in the goblet cell numbers and intestinal architecture	did not inhibit the Hedgehog signalling cascade
